Test results published in US20190367516A1 (Bayer Pharma Aktiengesellschaft, priority 2015, published 2019).
Like-named read-outs stand apart in the source and are kept apart here.

Columns and labels:
human M2 receptor [1] = target: T1, human M2 receptor (Homo sapiens, UniProt P08172); details: for Emax: read-out: Efficiency, boosting of the acetylcholine effect at EC20 acetylcholine concentration
T1 sequence (P08172 1-466): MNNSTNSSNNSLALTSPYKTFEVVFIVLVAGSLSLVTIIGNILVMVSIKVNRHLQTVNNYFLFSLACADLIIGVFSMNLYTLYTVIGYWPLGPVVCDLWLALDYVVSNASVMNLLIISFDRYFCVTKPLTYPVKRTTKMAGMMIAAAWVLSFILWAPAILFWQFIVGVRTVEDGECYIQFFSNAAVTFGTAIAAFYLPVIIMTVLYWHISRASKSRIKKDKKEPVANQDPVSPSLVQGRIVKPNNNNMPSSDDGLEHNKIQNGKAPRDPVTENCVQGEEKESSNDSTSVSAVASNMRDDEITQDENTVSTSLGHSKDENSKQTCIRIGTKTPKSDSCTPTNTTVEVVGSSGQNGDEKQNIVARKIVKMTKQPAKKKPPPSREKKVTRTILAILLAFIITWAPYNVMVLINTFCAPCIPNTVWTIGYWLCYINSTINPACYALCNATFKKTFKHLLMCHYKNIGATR

human M2 receptor [2] = target: T1, human M2 receptor; format: cell-based; details: α >1 = positive cooperativity
[3] = Receptor activity EC50, allosteric potency at EC20 acetylcholine, M2-GIRK1/4 reporter cells, in some cases mean of two or more determinations
[4] = shift of acetylcholine dose-response curve (Allosteric EC50 shift)
[5] = Receptor activity EC50, M2-GIRK1/4 activation test, acetylcholine at EC20, allosteric potency, in some cases mean values from two or more determinations
[6] = shift in the acetylcholine dose-response curve (Allosteric EC50 shift, GraphPad PRISM)

| EC50 (human M2 receptor [1]; [3]) | Emax (human M2 receptor [1]; M2-GIRK1/4 reporter cells) | Cooperativity (alpha factor) (human M2 receptor [2]; [4]) | EC50 (human M2 receptor [1]; [5]) | Cooperativity (alpha factor) (human M2 receptor [2]; [6]) | Compound |
| --- | --- | --- | --- | --- | --- |
| 10 nM | 100% | 26 | – | – | CC[C@H](NC(=O)c1cn(-c2c(F)cc(F)cc2Cl)c2nc(N3C[C@@H](O)CC3=O)ccc2c1=O)C(F)(F)F [Example 398, 1-(2-Chloro-4,6-difluorophenyl)-7-[(4S)-4-hydroxy-2-oxopyrrolidin-1-yl]-4-oxo-N-[(2S)-1,1,1-trifluorobutan-2-yl]-1,4-dihydro-1,8-naphthyridine-3-carboxamide] |
| – | – | – | 21 nM | 20 | CC[C@H](NC(=O)c1cn(-c2c(F)cc(F)cc2F)c2nc(N3CCCN(CCO)C3=O)ccc2c1=O)C(F)(F)F [Example 365, 7-[3-(2-Hydroxyethyl)-2-oxotetrahydropyrimidin-1(2H)-yl]-4-oxo-N-[(2S)-1,1,1-trifluorobutan-2-yl]-1-(2,4,6-trifluorophenyl)-1,4-dihydro-1,8-naphthyridine-3-carboxamide] |
| – | – | – | 6 nM | 36 | CC(C)(C)C(NC(=O)c1cn(-c2c(F)cc(F)cc2F)c2nc(N3CCNC3=O)ccc2c1=O)C(F)(F)F (stereo in doubt) [Example 360, 4-Oxo-7-(2-oxoimidazolidin-1-yl)-N-[(2S)-1,1,1-trifluoro-3,3-dimethylbutan-2-yl]-1-(2,4,6-trifluorophenyl)-1,4-dihydro-1,8-naphthyridine-3-carboxamide] |
| 8 nM | 100% | 28 | – | – | CC(C)C[C@H](NC(=O)c1cn(-c2c(F)cc(F)cc2F)c2nc(N3CCNC3=O)ccc2c1=O)C(F)(F)F [Example 543, 4-Oxo-7-(2-oxoimidazolidin-1-yl)-N-[(2S)-1,1,1-trifluoro-4-methylpentan-2-yl)-1-(2,4,6-trifluorophenyl)-1,4-dihydro-1,8-naphthyridine-3-carboxamide] |
| 2 nM | 100% | 68 | – | – | CC(C)C(NC(=O)c1cn(-c2c(F)cc(F)cc2F)c2nc(N3C[C@@H](O)CC3=O)ccc2c1=O)C(C)C [Example 475, N-(2,4-Dimethylpentan-3-yl)-7-[(4S)-4-hydroxy-2-oxopyrrolidin-1-yl]-4-oxo-1-(2,4,6-trifluorophenyl)-1,4-dihydro-1,8-naphthyridine-3-carboxamide] |
| 17 nM | 89% | 7 | – | – | CC1CCN(c2ccc3c(=O)c(C(=O)N[C@@H](C)C(F)(F)F)cn(-c4c(F)cc(F)cc4Cl)c3n2)C1=O (mixture of isomers) [Example 418, 1-(2-Chloro-4,6-difluorophenyl)-7-[3-methyl-2-oxopyrrolidin-1-yl]-4-oxo-N-[(2S)-1,1,1-trifluoropropan-2-yl]-1,4-dihydro-1,8-naphthyridine-3-carboxamide] |
| 6 nM | 99.5% | 44 | – | – | CCC(NC(=O)c1cn(-c2c(F)cc(F)cc2F)c2nc(N3C[C@@H](O)CC3=O)ccc2c1=O)C(C)C (mixture of isomers) [Example 484, 7-[(4S)-4-Hydroxy-2-oxopyrrolidin-1-yl]-N-[2-methylpentan-3-yl]-4-oxo-1-(2,4,6-trifluorophenyl)-1,4-dihydro-1,8-naphthyridine-3-carboxamide] |
| – | – | – | 45 nM | 28 | O=C(N[C@@H](C1CC1)C(F)(F)F)c1cn(-c2c(F)cc(F)cc2F)c2nc(N3CCN(CCO)C3=O)ccc2c1=O [Example 363, N-[(1 S)-1-Cyclopropyl-2,2,2-trifluoroethyl]-7-[3-(2-hydroxyethyl)-2-oxoimidazolidin-1-yl]-4-oxo-1-(2,4,6-trifluorophenyl)-1,4-dihydro-1,8-naphthyridine-3-carboxamide] |
| 21 nM | 98.5% | 19 | – | – | O=C(NC1(C(F)(F)F)CCC1)c1cn(-c2c(F)cc(F)cc2F)c2nc(N3CCNC3=O)ccc2c1=O [Example 596, 4-Oxo-7-(2-oxoimidazolidin-1-yl)-N-[1-(trifluoromethyl)cyclobutyl]-1-(2,4,6-trifluorophenyl)-1,4-dihydro-1,8-naphthyridine-3-carboxamide] |

Second part, the compound before the results:

| Compound | EC50 (human M2 receptor [1]; [3]) | Emax (human M2 receptor [1]; M2-GIRK1/4 reporter cells) | Cooperativity (alpha factor) (human M2 receptor [2]; [4]) | EC50 (human M2 receptor [1]; [5]) | Cooperativity (alpha factor) (human M2 receptor [2]; [6]) |
| --- | --- | --- | --- | --- | --- |
| CC(COC(F)(F)F)NC(=O)c1cn(-c2ccc(F)cc2F)c2nc(N3CC[C@H](F)C3)ccc2c1=O (single isomer, unassigned) [Example 228] | – | – | – | 51 nM | 12 |
| CC(COC(F)(F)F)NC(=O)c1cn(-c2ccc(F)cc2F)c2nc(N3CC[C@H](F)C3)ccc2c1=O (mixture of isomers) [Example 227, 1-(2,4-Difluorophenyl)-7-[(3S)-3-fluoropyrrolidin-1-yl]-4-oxo-N-[1-(trifluoromethoxy)propan-2-yl]-1,4-dihydro-1,8-naphthyridine-3-carboxamide] | – | – | – | 73 nM | 14 |
| C[C@@H]1C[C@H](F)CN1c1ccc2c(=O)c(C(=O)NC34CC5CC(CC(C5)C3)C4)cn(-c3ccc(F)cc3F)c2n1 [Example 11, 1-(2,4-Difluorophenyl)-7-[(2R,4S)-4-fluoro-2-methylpyrrolidin-1-yl]-4-oxo-N-(tricyclo[3.3.1.1^3,7]dec-1-yl)-1,4-dihydro-1,8-naphthyridine-3-carboxamide] | – | – | – | 61 nM | 10 |
| CCC(NC(=O)c1cn(-c2ccc(F)cc2F)c2nc(N3CCC(O)C3)ccc2c1=O)C(F)(F)F (stereo in doubt) [Example 218, 1-(2,4-Difluorophenyl)-7-[3-hydroxypyrrolidin-1-yl]-4-oxo-N-[(2S)-1,1,1-trifluorobutan-2-yl]-1,4-dihydro-1,8-naphthyridine-3-carboxamide] | – | – | – | 153 nM | 33 |
| O=C(NC12CC3CC(CC(C3)C1)C2)c1cn(-c2ccc(F)cc2F)c2nc(N3CCC(O)(O)C(F)(F)C3)ccc2c1=O [Example 6, 7-(3,3-Difluoro-4,4-dihydroxypiperidin-1-yl)-1-(2,4-difluorophenyl)-4-oxo-N-(tricyclo[3.3.1.1^3,7]dec-1-yl)-1,4-dihydro-1,8-naphthyridine-3-carboxamide] | – | – | – | 34 nM | 15 |
| CC(NC(=O)c1cn(-c2ccc(F)cc2F)c2nc(NCC(F)(F)F)ccc2c1=O)C(F)(F)F (stereo not shown) [Example 93, 1-(2,4-Difluorophenyl)-4-oxo-7-[(2,2,2-trifluoroethyl)amino]-N-[1,1,1-trifluoropropan-2-yl]-1,4-dihydro-1,8-naphthyridine-3-carboxamide] | – | – | – | 213 nM | 8 |
| CC[C@@H](NC(=O)c1cn(-c2ccc(F)cc2F)c2nc(N3C[C@@H]4C(COC)[C@@H]4C3)ccc2c1=O)C(F)(F)F (stereo partly drawn) [Example 190, 1-(2,4-Difluorophenyl)-7-[(1R,5S)-6-(methoxymethyl)-3-azabicyclo[3.1.0]hex-3-yl]-4-oxo-N-[(2R)-1,1,1-trifluorobutan-2-yl]-1,4-dihydro-1,8-naphthyridine-3-carboxamide] | – | – | – | 46 nM | 12 |
| CC[C@@H](NC(=O)c1cn(-c2ccc(F)cc2F)c2nc(N3CCC(C)(F)C3)ccc2c1=O)C(F)(F)F (mixture of isomers) [Example 30, 1-(2,4-Difluorophenyl)-7-(3-fluoro-3-methylpyrrolidin-1-yl)-4-oxo-N-[(2R)-1,1,1-trifluorobutan-2-yl]-1,4-dihydro-1,8-naphthyridine-3-carboxamide (diastereomer mixture)] | – | – | – | 95 nM | 11 |
